Data as given in ChEMBL document CHEMBL4390702, “Discovery of novel phenoxybenzamide analogues as Raf/HDAC dual inhibitors” (Bioorg Med Chem Lett, 2019).
Calls of active or inactive are those of the source. The rule behind the calls is not given here.

Tests used:
[1] = molecular target: Serine/threonine-protein kinase B-raf (Homo sapiens, UniProt P15056, V600E); test: Inhibition of recombinant human N-terminal GST-tagged BRAF V600E mutant catalytic domain (416 to 766 residues) expressed in baculovirus expression system using human His6-tagged MEK1 (K97R) as substrate preincubated for 20 mins followed by [33P-gamma]ATP addition and measured after 2 hrs by filter-binding assay
[2] = molecular target: T1, Histone deacetylase 1 (Homo sapiens, UniProt Q13547); test: Inhibition of recombinant full-length human C-terminal FLAG/His-tagged HDAC1 expressed in baculovirus infected Sf9 insect cells using Fluor-de-Lys as substrate measured after 10 mins by fluorescence assay
T1 sequence (Q13547 whole entry): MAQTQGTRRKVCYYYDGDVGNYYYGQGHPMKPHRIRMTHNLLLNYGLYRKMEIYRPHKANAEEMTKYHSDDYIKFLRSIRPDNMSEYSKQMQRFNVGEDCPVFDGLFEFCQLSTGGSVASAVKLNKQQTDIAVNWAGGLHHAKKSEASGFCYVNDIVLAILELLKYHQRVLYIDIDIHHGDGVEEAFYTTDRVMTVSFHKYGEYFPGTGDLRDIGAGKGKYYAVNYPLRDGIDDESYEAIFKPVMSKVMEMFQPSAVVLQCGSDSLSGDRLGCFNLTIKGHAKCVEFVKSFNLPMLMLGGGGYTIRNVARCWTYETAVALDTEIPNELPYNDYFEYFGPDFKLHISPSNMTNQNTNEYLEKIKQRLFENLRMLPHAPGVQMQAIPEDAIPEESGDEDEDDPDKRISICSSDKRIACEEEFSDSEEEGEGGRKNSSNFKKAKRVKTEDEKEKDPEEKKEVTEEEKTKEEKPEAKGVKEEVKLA

[3] = molecular target: T2, Protein deacetylase HDAC6 (Homo sapiens) (UniProt Q9UBN7); test: Inhibition of recombinant human HDAC6 at 50 uM using Fluor-de-Lys as substrate measured after 10 mins by fluorescence assay
T2 sequence (whole entry): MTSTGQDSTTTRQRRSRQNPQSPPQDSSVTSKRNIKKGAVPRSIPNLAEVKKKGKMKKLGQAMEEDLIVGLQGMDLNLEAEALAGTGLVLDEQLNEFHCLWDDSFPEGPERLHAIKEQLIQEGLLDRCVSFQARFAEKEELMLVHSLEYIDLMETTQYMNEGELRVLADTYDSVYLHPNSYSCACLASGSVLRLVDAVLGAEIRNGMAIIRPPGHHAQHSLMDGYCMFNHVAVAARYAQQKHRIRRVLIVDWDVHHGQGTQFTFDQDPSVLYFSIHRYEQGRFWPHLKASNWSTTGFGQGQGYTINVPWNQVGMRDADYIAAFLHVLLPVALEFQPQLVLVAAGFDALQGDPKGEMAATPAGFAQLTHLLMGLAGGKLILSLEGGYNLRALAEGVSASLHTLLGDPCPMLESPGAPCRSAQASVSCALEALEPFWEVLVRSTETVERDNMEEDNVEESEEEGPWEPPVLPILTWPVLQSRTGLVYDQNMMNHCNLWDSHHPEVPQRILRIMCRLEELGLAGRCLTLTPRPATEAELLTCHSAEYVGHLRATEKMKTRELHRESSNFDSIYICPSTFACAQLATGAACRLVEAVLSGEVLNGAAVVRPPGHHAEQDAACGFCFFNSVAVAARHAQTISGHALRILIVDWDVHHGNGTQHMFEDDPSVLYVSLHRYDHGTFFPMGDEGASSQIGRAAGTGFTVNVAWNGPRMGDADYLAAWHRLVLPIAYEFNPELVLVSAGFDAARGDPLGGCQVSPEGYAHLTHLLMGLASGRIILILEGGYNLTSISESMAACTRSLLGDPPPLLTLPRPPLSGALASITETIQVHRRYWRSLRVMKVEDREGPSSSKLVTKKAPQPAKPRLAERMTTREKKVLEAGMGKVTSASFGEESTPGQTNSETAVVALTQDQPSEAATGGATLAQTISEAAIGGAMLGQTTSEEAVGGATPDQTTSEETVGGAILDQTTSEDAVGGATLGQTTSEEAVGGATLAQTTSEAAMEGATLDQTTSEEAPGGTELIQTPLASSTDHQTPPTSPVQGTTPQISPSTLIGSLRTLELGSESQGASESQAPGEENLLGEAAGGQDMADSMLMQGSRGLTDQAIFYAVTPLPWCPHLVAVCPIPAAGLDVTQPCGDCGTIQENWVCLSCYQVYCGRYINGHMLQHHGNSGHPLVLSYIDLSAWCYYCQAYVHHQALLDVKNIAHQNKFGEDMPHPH

[4] = system: HepG2; test: Antiproliferative activity against human HepG2 cells measured after 48 hrs by MTT assay; format: functional, cell-based; settings: HepG2, 48 h
[5] = molecular target: T3, Serine/threonine-protein kinase A-Raf (Homo sapiens, UniProt P10398); test: Inhibition of human ARAF using human His6-tagged MEK1 (K97R) as substrate preincubated for 20 mins followed by [33P-gamma]ATP addition and measured after 2 hrs by filter-binding assay
T3 sequence (P10398 whole entry): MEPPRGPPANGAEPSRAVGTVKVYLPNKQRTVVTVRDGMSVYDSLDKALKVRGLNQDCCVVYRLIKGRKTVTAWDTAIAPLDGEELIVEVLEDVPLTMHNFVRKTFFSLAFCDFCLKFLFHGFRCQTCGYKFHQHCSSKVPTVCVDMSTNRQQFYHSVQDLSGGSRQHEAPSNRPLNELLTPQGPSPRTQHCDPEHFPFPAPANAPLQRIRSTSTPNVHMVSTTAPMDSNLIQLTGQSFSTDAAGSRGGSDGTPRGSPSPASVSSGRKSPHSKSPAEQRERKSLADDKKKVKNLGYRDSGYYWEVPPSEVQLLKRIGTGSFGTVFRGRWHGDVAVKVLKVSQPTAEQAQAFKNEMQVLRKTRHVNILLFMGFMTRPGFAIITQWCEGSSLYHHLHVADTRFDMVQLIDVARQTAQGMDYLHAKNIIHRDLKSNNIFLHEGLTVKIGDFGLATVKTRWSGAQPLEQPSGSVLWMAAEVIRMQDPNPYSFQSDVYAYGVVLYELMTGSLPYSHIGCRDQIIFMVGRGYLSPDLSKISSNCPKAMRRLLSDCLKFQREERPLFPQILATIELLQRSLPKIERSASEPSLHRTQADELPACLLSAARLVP

[6] = system: MV4-11; test: Antiproliferative activity against human MV4-11 cells measured after 48 hrs by MTT assay; format: functional, cell-based; settings: MV4-11, 48 h
[7] = system: K562; test: Antiproliferative activity against human K562 cells measured after 48 hrs by MTT assay; format: functional, cell-based; settings: K562, 48 h
[8] = molecular target: RAF proto-oncogene serine/threonine-protein kinase (Homo sapiens, UniProt P04049); test: Inhibition of human CRAF using human His6-tagged MEK1 (K97R) as substrate preincubated for 20 mins followed by [33P-gamma]ATP addition and measured after 2 hrs by filter-binding assay
Chain of RAF proto-oncogene serine/threonine-protein kinase (P04049 whole entry): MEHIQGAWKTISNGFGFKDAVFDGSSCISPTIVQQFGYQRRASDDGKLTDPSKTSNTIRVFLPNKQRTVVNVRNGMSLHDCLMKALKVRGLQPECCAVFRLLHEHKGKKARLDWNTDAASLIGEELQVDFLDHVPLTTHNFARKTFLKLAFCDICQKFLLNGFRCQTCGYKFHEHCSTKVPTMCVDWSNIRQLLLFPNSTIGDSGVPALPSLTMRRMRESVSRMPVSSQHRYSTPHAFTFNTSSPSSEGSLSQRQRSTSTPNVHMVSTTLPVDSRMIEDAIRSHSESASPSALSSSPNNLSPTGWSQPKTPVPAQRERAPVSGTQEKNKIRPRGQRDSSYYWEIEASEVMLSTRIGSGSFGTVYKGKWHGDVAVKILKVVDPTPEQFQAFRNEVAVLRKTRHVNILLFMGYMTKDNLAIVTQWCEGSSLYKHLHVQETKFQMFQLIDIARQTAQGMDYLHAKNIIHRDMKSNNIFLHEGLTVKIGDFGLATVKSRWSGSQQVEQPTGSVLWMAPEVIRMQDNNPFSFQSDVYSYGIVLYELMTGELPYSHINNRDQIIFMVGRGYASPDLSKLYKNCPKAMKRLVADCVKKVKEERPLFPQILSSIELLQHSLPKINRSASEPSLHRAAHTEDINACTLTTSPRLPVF

[9] = system: MDA-MB-468; test: Antiproliferative activity against human MDA-MB-468 cells measured after 48 hrs by MTT assay; format: functional, cell-based; settings: MDA-MB-468, 48 h
[10] = molecular target: T4, Histone deacetylase 8 (Homo sapiens) (UniProt Q9BY41); test: Inhibition of recombinant full-length human C-terminal His-tagged HDAC8 expressed in baculovirus infected Sf9 insect cells at 50 uM using Fluor-de-Lys as substrate measured after 10 mins by fluorescence assay
T4 sequence (whole entry): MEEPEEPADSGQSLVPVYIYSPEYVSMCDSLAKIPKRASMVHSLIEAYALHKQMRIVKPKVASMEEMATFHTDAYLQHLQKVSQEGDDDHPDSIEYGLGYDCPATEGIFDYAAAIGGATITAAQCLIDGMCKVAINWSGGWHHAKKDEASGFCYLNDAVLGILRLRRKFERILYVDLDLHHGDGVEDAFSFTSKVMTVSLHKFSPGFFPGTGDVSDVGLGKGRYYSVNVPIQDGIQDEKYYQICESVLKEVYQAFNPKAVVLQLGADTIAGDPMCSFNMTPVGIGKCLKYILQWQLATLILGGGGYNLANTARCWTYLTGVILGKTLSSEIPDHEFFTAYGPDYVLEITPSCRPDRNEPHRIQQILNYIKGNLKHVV

[11] = molecular target: T1, Histone deacetylase 1; test: Inhibition of recombinant full-length human C-terminal FLAG/His-tagged HDAC1 expressed in baculovirus infected Sf9 insect cells at 50 uM using Fluor-de-Lys as substrate measured after 10 mins by fluorescence assay
[12] = molecular target: T1, Histone deacetylase 1; test: Inhibition of HDAC1 (unknown origin)

With CNC(=O)c1cc(Oc2ccc(NC(=O)c3cccc(N)c3)cc2)ccc1N the IC50 [1] was 3.26 µM and the IC50 [2] was 1.03 µM.

In the case of NC(=O)c1cc(Oc2ccc(NC(=O)c3ccc(Cl)c(C(F)(F)F)c3)cc2)ccc1N, the IC50 [1] is reported as 0.688 µM and the IC50 [2] is reported as 2.79 µM.

CNC(=O)c1cc(Oc2ccc(NC(=O)c3ccc(N)cc3)cc2)ccc1N was tested, and the IC50 [1] was 0.942 µM and the IC50 [2] was 2.27 µM.

With CNC(=O)c1cc(Oc2ccc(NC(=O)c3ccc(OC)cc3)cc2)ccc1N the inhibition [3] was “inactive”, the IC50 [4] was 6.65 µM and the IC50 [5] was 0.211 µM. It also gave an IC50 [6] of 1.87 µM, an IC50 [7] of 5.22 µM and an IC50 [8] of 0.652 µM. For the same molecule, the IC50 [9] was 0.95 µM, the inhibition [10] was “inactive” and the IC50 [1] was 0.187 µM. It also gave an IC50 [2] of 2.46 µM.

CNC(=O)c1cc(Oc2ccc(NC(=O)c3ccc(F)cc3)cc2)ccc1N was tested, and the IC50 [4] was 7.56 µM, the IC50 [6] was 5.32 µM and the IC50 [7] was 6.43 µM. For the same molecule, the IC50 [9] was 5.76 µM, the IC50 [1] was 0.303 µM and the IC50 [2] was 7.65 µM.

In the case of CNC(=O)c1cc(Oc2ccc(NC(=O)c3ccc(Cl)c(C(F)(F)F)c3)cc2)ccc1N, the inhibition [3] is reported as “inactive”, the IC50 [4] is reported as 1.33 µM and the IC50 [5] is reported as 0.183 µM. For the same molecule, the IC50 [6] was 1.12 µM, the IC50 [7] was 2.73 µM and the IC50 [8] was 0.092 µM. For the same molecule, the IC50 [9] was 0.57 µM, the inhibition [10] was “inactive” and the IC50 [1] was 0.073 µM. The IC50 [2] was 1.17 µM.

For Nc1cc(F)ccc1NC(=O)c1ccc(CNC(=O)/C=C/c2cccnc2)cc1 [TUCIDINOSTAT], the inhibition [3] was “inactive”, the IC50 [4] was 4.89 µM and the IC50 [6] was 3.73 µM. The IC50 [7] was 0.87 µM, the IC50 [9] was 2.65 µM and the inhibition [10] was “inactive”.

CNC(=O)c1cc(Oc2ccc(NC(=O)c3ccccc3)cc2)ccc1N was tested, and the IC50 [1] was 0.342 µM and the IC50 [2] was 6.19 µM.

For CCNC(=O)c1cc(Oc2ccc(NC(=O)c3ccc(Cl)c(C(F)(F)F)c3)cc2)ccc1N, the IC50 [1] was 0.354 µM and the IC50 [2] was 1.62 µM.

CNC(=O)c1cc(Oc2ccc(NC(=O)c3ccc4ccccc4c3)cc2)ccc1N gave an IC50 [4] of 7.28 µM, an IC50 [6] of 8.21 µM and an IC50 [7] of 10.3 µM. It also gave an IC50 [9] of 3.91 µM, an IC50 [1] of 0.237 µM and an IC50 [2] of 8.21 µM.

Work on CNC(=O)c1cc(Oc2ccc(NC(=O)c3cccc(O)c3)cc2)ccc1N yielded an IC50 [1] of 4.06 µM and an IC50 [2] of 1.95 µM.

For CN(C)C(=O)c1cc(Oc2ccc(NC(=O)c3ccc(Cl)c(C(F)(F)F)c3)cc2)ccc1N, the IC50 [1] was 4.17 µM and the inhibition [11] was “inactive”.

CNC(=O)c1cc(Oc2ccc(NC(=O)c3cccnc3)cc2)ccc1N gave an IC50 [12] of 5.23 µM, an IC50 [1] of 1.78 µM and an IC50 [2] of 5.23 µM.

Work on CNC(=O)c1cc(Oc2ccc(NC(=O)c3ccc(Cl)cc3)cc2)ccc1N yielded an IC50 [4] of 5.13 µM, an IC50 [6] of 9.23 µM and an IC50 [7] of 7.12 µM. For the same molecule, the IC50 [9] was 4.24 µM, the IC50 [1] was 0.165 µM and the IC50 [2] was 7.11 µM.

In the case of CNC(=O)c1cc(Oc2ccc(NC(=O)Nc3ccc(Cl)c(C(F)(F)F)c3)cc2)ccn1 [SORAFENIB], the IC50 [4] is reported as 3.04 µM, the IC50 [6] is reported as 0.51 µM and the IC50 [7] is reported as 17.2 µM. It also gave an IC50 [9] of 12.2 µM.
